pIC50: −log10 of the molar value.
Key:
[1] = tested on: IL-6, MCP-1, MIP1β, CC16, fibrinogen and CRP levels in plasma; test: Inhaled LPS challenge: plasma protein biomarkers; format: in vivo, human; conditions: study 2; for Plasma CC16, mean / Plasma CRP, mean / Plasma Fibrinogen, mean / Plasma IL-6, mean / Plasma MCP-1, mean / Plasma MIP-1β, mean: PH-797804 30 mg oral or PF-03715455 20 mg inhaled, 6 hrs post LPS
Method: Blood samples were obtained in studies 2 and 3 to obtain plasma measurements of IL-6, MCP-1, MIP1β, CC16, fibrinogen and CRP levels; pre-dose and 6 h post-LPS samples were used for statistical analysis. This coincided with the timings of sputum measurements of inflammation biomarkers.
Systemic biomarkers were analysed using a similar mixed effects model; these models also adjusted for pre-dose baseline values, which were obtained 24 h prior to LPS challenge in study 2 and 30 min prior to LPS challenge in study 3.

[2] = tested on: p38 MAPK; conditions: no reference given; read-out: enzyme IC50; cited from earlier work
[3] = Safety: treatment emergent adverse events; format: in vivo, human; conditions: for safety and tolerability: single doses, healthy subjects, studies 1 and 2
Method: Safety was assessed in these studies by physical examinations, haematology and biochemistry measurements, ECG analysis and reporting of any adverse events.
Summary of Number ofSubjects Experiencing Treatment EmergentAdverse Events by MedDRA System Organ Class

[4] = cited from earlier work
[5] = study 2, PF-03715455 20mg (n=27), PH-797804 30mg (n=23)
[6] = study 2, PF-03715455 20mg (n=27), PH-797804 30mg (n=23), hangover (PF-03715455), loss of libido and insomnia (PH-797804)

Row | SMILES | Plasma CC16, mean [1] [ng/mL] | Plasma CRP, mean [1] [ng/mL] | Plasma Fibrinogen, mean [1] [µg/mL] | Plasma IL-6, mean [1] [pg/mL] | Plasma MCP-1, mean [1] [pg/mL] | Plasma MIP-1β, mean [1] [pg/mL] | safety and tolerability [3] | Number of subjects with treatment emergent AE: Eye Disorders [3, 5] | Number of subjects with treatment emergent AE: Gastrointestinal Disorders [3, 5] | Number of subjects with treatment emergent AE: General Disorders and Administration Site Conditions [3, 5] | Number of subjects with treatment emergent AE: Immune system disorders [3, 5] | Number of subjects with treatment emergent AE: Injury, Poisoning and Procedural Complications [3, 5] | Number of subjects with treatment emergent AE: Musculoskeletal and Connective tissue disorders [3, 5] | Number of subjects with treatment emergent AE: Nervous system disorders [3, 5] | Number of subjects with treatment emergent AE: Respiratory, thoracic and mediastinal disorders [3, 5] | Number of subjects with treatment emergent AE: Skin and subcutaneous tissue disorders [3, 5] | Number of subjects with treatment emergent AE: Vascular disorders [3, 5] | Number of subjects with treatment emergent AE: Psychiatric disorders [3, 6] | further results
1 | CC(C)(C)c1cc(NC(=O)NCc2ccccc2Sc2ccc3nnc(-c4ccccc4SCCO)n3c2)n(-c2ccc(O)c(Cl)c2)n1 [PF-03715455] | 10.19 | 475.90 | 2340.40 | 14.43 | 340.30 | 71.55 | safe and generally well tolerated | 0 | 2 | 3 | 0 | 0 | 0 | 5 | 2 | 1 | 1 | 1 | plasma IL-6, MCP-1, MIP1β and CC16 compared to placebo ([1]; PF-03715455 20 mg inhaled, 6 h post-LPS challenge): statistically significant reductions; pIC50 [2]: 10.30 to 11.30; AE requiring withdrawal ([3]; study 2, one subject, 5 days after dosing, investigator did not consider it related): cellulitis
2 | CNC(=O)c1ccc(C)c(-n2c(C)cc(OCc3ccc(F)cc3F)c(Br)c2=O)c1 [PH-797804] | 9.34 | 462.10 | 2172.70 | 5.47 | 261.50 | 33.82 | safe and generally well tolerated | 1 | 0 | 3 | 0 | 1 | 0 | 8 | 3 | 0 | 0 | 2 | improvement of FEV1 ([4]; COPD patients treated for 6 weeks): 93 mL; pulmonary function ([4]; COPD trial): clinically significant improvement; tolerability in COPD trials ([4]; oral, up to 24-week duration): well tolerated; plasma IL-6, MIP1β, MCP-1, CC16 and CRP levels compared to placebo ([1]; PH-797804 30 mg oral, 6 h post-LPS challenge): statistically significant reductions; Number of subjects with treatment emergent AE: Eye Disorders ([3]; study 1, PH-797804 30mg (n=17)): 1; Number of subjects with treatment emergent AE: Gastrointestinal Disorders ([3]; study 1, PH-797804 30mg (n=17)): 0; Number of subjects with treatment emergent AE: General Disorders and Administration Site Conditions ([3]; study 1, PH-797804 30mg (n=17)): 1; Number of subjects with treatment emergent AE: Infections and infestations ([3]; study 1, PH-797804 30mg (n=17)): 1; Number of subjects with treatment emergent AE: Injury, Poisoning and Procedural Complications ([3]; study 1, PH-797804 30mg (n=17)): 1; Number of subjects with treatment emergent AE: Investigation (raised blood potassium) ([3]; study 1, PH-797804 30mg (n=17)): 0; Number of subjects with treatment emergent AE: Musculoskeletal and Connective tissue disorders ([3]; study 1, PH-797804 30mg (n=17)): 1; Number of subjects with treatment emergent AE: Nervous system disorders ([3]; study 1, PH-797804 30mg (n=17)): 2; Number of subjects with treatment emergent AE: Respiratory, thoracic and mediastinal disorders ([3]; study 1, PH-797804 30mg (n=17)): 0; Number of subjects with treatment emergent AE: Skin and subcutaneous tissue disorders ([3]; study 1, PH-797804 30mg (n=17)): 0; Number of subjects with treatment emergent AE: Psychiatric disorders ([3]; study 1, PH-797804 30mg (n=17), event was insomnia lasting 1 hr): 1; Number of subjects with treatment emergent AE: Infections and infestations [3, 5]: 2
